Assay [1] deals with HBL-1 cells (B-cell lymphoma). As to the kind of experiment: Proliferation inhibition, HBL-1 (cck-8). Format: cell-based. To be noted: Homo sapiens, HBL1; 96 h incubation. The source says:
Calculating the value of IC50 as per the formula: Y=background data+(top data−background data)/(1+10^((Log IC50−X)*rate of curve)). Where, Y refers to the inhibition ratio (%) and X refers to the compound concentration.

In assay [2] the test system is acetylated Ac-α-tubulin in A2780s cells. Nature of the assay: Induction of α-tubulin acetylation in A2780s cells (cytoblot). Format: cell-based. To be noted: Homo sapiens, 6 h treatment, read-out: Ac-Tub EC50. The procedure:
Specific operation: After the treatment, washing each well once with 50-100 μl of cold TBS buffer [with the composition as 20 mM Tris (trismetyl aminomethane), pH7.5] and fixing it with 100 μL of 4% pre-cooled paraformaldehyde at 4° C. for 1 h; after paraformaldehyde is washed off, adding 50 μL of pre-cooled methyl alcohol in each well and evenly spreading at 4° C. for 5 min; after methyl alcohol is washed off, washing it once with the TBS buffer containing 3% skim milk powder and adding 50 μL of antibody fluid, oscillating it slightly at 4° C. and incubating overnight. For determination of Ac—H3, the antibody fluid is prepared by diluting Ac—H3 antibody and horseradish peroxide coupled secondary antibody to a same system with the TBS buffer containing 3% skim milk powder (Ac—H3 antibody is purchased from Santa Cruz Company and diluted at a ratio of 1:100; horseradish peroxide coupled secondary antibody is purchased from Jackson Company and diluted at a ratio of 1:2000); for determination of acetylated Ac-α-tubulin, the antibody fluid is prepared by diluting Ac-α-tubulin antibody and horseradish peroxide coupled secondary antibody to a same system with the TBS buffer containing 3% skim milk powder (Ac-α-tubulin antibody is purchased from Santa Cruz Company and diluted at a ratio of 1:100; horseradish peroxide coupled secondary antibody is purchased from Jackson Company and diluted at a ratio of 1:2000).
Calculating the value of IC50 as per the formula: Y=background data+(top data−background data)/(1+10^((Log EC50−X)*rate of curve)) Where, Y refers to the activating rate (%) and X refers to the compound concentration.

The target of the next assay is T1, HDAC11 (Homo sapiens, UniProt Q96DB2).
T1 construct: purchased BPS Bioscience 50011
T1 sequence (Q96DB2 1-347): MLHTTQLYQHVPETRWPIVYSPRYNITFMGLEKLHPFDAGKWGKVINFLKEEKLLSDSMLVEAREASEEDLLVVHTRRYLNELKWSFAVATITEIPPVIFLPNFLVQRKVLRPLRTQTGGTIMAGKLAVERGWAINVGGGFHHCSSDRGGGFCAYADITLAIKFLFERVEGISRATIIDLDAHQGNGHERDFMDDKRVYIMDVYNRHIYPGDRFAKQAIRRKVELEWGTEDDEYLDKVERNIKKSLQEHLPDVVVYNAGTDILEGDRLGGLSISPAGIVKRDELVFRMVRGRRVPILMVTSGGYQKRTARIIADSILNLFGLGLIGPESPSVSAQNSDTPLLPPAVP
As to the kind of experiment: HDAC11 enzyme inhibition (Lys-Ac-AMC). The following applies: Table 4, graded. Format: biochemical. The procedure:
Determining the inhibition capability of HDAC through the substrate method of fluorophore coupled acetylized peptide fragment (Lys-Ac-AMC). HDAC2-11 proteins of subtypes are purchased from BPS Bioscience Company with the Art. […] The reaction buffer system is a modified Tris buffer (pH7.0). The small molecule compounds are prepared and dissolved with 100% DMSO. […] Adding the compound into the reaction wells of the 384 well plate at the designed concentration, then adding 15 μL HDAC enzyme solution into the reaction wells (adding 15 μL blank buffer into the control well 0) for incubation under ambient temperature for 15 min; then adding 10 μL substrate solution to start reaction.
Analyzing the result data with the software GraphPad Prism and calculating the value of IC50 as per the formula: Y=background data+(top data−background data)/(1+10^((Log IC50−X)*rate of curve)). Where, Y refers to the inhibition ratio (%) and X refers to the compound concentration.

Assay [3] concerns A2780s cells (ovarian cancer). As to the kind of experiment: Cell proliferation inhibition, A2780s (MTT). Format: cell-based. The following applies: Homo sapiens. The method in brief:
(§1)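 Cells seeded at 2000-3000/well; adherent lines dosed after attachment, then 96 h incubation with compound. Viability read by MTT for solid-tumour lines (HCT116, A2780s) and CCK-8 for MV4-11; IC50 from four-parameter logistic fit of inhibition ratio versus concentration.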

A further assay has as its target T2, HDAC1 (Homo sapiens, UniProt Q13547).
T2 construct: purchased BPS Bioscience
Nature of the assay: In vitro HDAC1 enzymatic activity inhibition (Lys-Ac-AMC substrate). The class given is biochemical. In outline:
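Fluorogenic Lys-Ac-AMC deacetylation with trypsin development in modified Tris buffer pH 7.0; compound preincubated with enzyme 15 min at ambient temperature before substrate addition. Final HDAC1 6 nM, trypsin 0.05 μM, Ac-peptide 8 μM. IC50 from four-parameter fit of % inhibition versus concentration.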

The test system of assay [4] is hct116 cells (colon cancer). As to the kind of experiment: Cell proliferation inhibition, hct116 (MTT). The class given is cell-based. The following applies: Homo sapiens, HCT-116. The method in brief: as §1
Setting [5] is: 96 h incubation, read-out: Proliferation IC50, Ovarian cancer A2780s.
[6] abbreviates: Table 1, graded, read-out: HDAC1 IC50.
The mark [7] stands for this setting: Table 4, graded, read-out: HDAC1 IC50.
Where [8] appears, read: 96 h incubation, read-out: Proliferation IC50, Colon cancer hct116.
[9] abbreviates: read-out: inhibition value IC50 to the activity of HDAC1.

The structures appear in SMILES notation. Read-outs that look alike come from different tables or passages of the source.

T2 sequence (Q13547 whole entry, species assumed): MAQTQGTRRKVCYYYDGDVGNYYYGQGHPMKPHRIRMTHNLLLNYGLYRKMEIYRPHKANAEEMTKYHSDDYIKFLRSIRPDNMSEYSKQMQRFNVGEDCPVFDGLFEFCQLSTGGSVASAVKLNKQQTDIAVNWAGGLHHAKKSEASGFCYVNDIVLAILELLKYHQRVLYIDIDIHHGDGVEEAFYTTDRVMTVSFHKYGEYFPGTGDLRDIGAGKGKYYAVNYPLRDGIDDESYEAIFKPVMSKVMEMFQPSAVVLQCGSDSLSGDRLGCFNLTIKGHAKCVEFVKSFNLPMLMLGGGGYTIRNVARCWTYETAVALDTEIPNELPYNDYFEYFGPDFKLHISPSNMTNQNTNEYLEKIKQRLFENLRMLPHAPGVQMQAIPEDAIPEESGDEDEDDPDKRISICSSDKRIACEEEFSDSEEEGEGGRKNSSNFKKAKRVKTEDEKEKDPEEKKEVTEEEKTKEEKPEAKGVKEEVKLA

Take `COc1ccc(-c2nc(N3CCOCC3)c3nc(CN(C)c4ncc(C(=O)NO)cn4)n(C)c3n2)cn1` [CLJ-1, 2-(((2-(6-methoxypyridine-3-yl)-9-methyl-6-morpholine-9H-purine-8-yl))methyl(methyl)amino)-N-hydroxyl pyrimidine-5-formamide]: the IC50 in assay [1] was 1 to 10 nM; against HDAC11 it was 1 to 10 µM; in assay [3] (setting [5]) it was 0.1 to 10 nM; at HDAC1 (setting [6]), under 100 nM; at HDAC1 (setting [7]), 1 to 100 nM; in assay [4] (setting [8]), 10 to 100 nM. For the same compound, the EC50 in assay [2] lay in the range of 100 to 200 nM.
For `CN(Cc1nc2c(N3CCOCC3)nc(-c3cnc(N)nc3)nc2n1C)c1ncc(C(=O)NO)cn1` [CLJ-11, 2-(((2-(2-aminopyrimidine-5-yl)-9-methyl-6-morpholine-9H-purine-8-yl))methyl(methyl)amino)-N-hydroxyl pyrimidine-5-formamide], the IC50 in assay [1] is 10 to 100 nM; against HDAC11, 1 to 10 µM; in assay [3] (setting [5]), 10 to 100 nM; at HDAC1 (setting [6]) it was under 100 nM; at HDAC1 (setting [7]) it was 1 to 100 nM; in assay [4] (setting [8]), 10 to 100 nM. The EC50 in assay [2] lay in the range of 100 to 200 nM.
For `COc1ccc(-c2nc(N3CCOCC3)c3nc(CN(C)c4ncc(C(=O)NO)cn4)n(C)c3n2)cc1` [CLJ-29, 2-(((2-(4-methoxyphenyl)-9-methyl-6-morpholine-9H-purine-8-yl))methyl(methyl)amino)-N-hydroxyl pyrimidine-5-formamide], the IC50 is 1 to 10 nM in assay [1]; 1 to 10 µM against HDAC11; 0.1 to 10 nM in assay [3] (setting [5]); 0.1 to 10 nM in assay [3] (read-out: IC50 to proliferation of A2780s cells); under 1 nM at HDAC1 (setting [6]); under 1 nM on HDAC1 (setting [7]). Besides, the IC50 is under 1 nM on HDAC1 (setting [9]), 0.1 to 10 nM in assay [4] (setting [8]) and 0.1 to 10 nM in assay [4] (read-out: IC50 to proliferation of hct116 cells). In addition, the EC50 in assay [2] is over 200 nM.
Regarding `CN(Cc1nc2c(N3CCOCC3)nc(-c3ccc(N)cc3)nc2n1C)c1ncc(C(=O)NO)cn1` [CLJ-44], the IC50 is 1 to 10 nM in assay [1]; 1 to 10 µM on HDAC11; 0.1 to 10 nM in assay [3] (setting [5]); under 1 nM on HDAC1 (setting [6]); under 1 nM on HDAC1 (setting [7]); under 1 nM on HDAC1 (setting [9]). In assay [4] (setting [8]), the IC50 lay within 10 to 100 nM. For the same compound, the EC50 in assay [2] was over 200 nM.
On to `Cc1[nH]c2ccccc2c1CCNCc1ccc(/C=C/C(=O)NO)cc1` [LBH589, panobinostat, reference compound], for which the IC50 in assay [1] lay within 1 to 10 nM; in assay [3] (setting [5]), 0.1 to 10 nM; in assay [4] (setting [8]), 0.1 to 10 nM. Further, the EC50 in assay [2] lay in the range of 100 to 200 nM.

A word on the EC50: it is the concentration giving half of the maximal effect.

The values above are taken from patent US10227347B2, “Purinyl-N-hydroxyl pyrimidine formamide derivative, preparation methods and uses thereof” (Guizhou Bailing Group Pharmaceutical CO., LTD., priority 2015, dated 2019).
